Experimental data taken from US20210253557A1, “SUBSTITUTED TRIAZOLE DERIVATIVES AND USES THEREOF” (Bayer Pharma Aktiengesellschaft, priority 2017, published 2021).

Experiments:
human V1a receptor = molecular target: T1, human V1a receptor (Homo sapiens, UniProt P37288); assay: Cellular in vitro assay for determining vasopressin receptor activity (V1a, aequorin luminescence); type: cell-based; conditions: for IC50: CHO cell line transfected with the human V1a receptor, [Arg8]-vasopressin at EC50 concentration, read-out: IC50 hV1a; for ratio IC50 hV2/hV1a: selectivity ratio of IC50 hV2 to IC50 hV1a
T1 construct: expressed in transfected cells; host or cells: CHO K1 (ATCC), also stably transfected with a modified aequorin
T1 sequence (P37288 whole entry): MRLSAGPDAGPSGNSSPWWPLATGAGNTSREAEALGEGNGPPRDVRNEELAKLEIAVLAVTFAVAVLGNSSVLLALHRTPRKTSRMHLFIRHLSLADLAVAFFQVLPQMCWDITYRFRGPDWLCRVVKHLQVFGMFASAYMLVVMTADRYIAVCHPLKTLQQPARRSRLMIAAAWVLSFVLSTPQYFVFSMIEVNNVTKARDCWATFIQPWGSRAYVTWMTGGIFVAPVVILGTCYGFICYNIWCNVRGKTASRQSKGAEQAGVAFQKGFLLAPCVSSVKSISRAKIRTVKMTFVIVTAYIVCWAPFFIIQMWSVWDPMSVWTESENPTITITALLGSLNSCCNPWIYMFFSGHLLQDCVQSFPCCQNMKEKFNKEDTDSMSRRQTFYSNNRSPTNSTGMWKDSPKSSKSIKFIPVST

human V2 receptor = molecular target: T2, human V2 receptor (Homo sapiens, UniProt P30518); assay: Cellular in vitro assay for determining vasopressin receptor activity (V2, CRE-luciferase); type: cell-based; conditions: CHO cell line transfected with the human V2 receptor; [Arg8]-vasopressin at EC50 concentration; read-out: IC50 hV2
T2 construct: expressed in transfected cells; host or cells: CHO K1 (ATCC) expressing firefly luciferase under a CRE-responsive promoter
T2 sequence (P30518 whole entry): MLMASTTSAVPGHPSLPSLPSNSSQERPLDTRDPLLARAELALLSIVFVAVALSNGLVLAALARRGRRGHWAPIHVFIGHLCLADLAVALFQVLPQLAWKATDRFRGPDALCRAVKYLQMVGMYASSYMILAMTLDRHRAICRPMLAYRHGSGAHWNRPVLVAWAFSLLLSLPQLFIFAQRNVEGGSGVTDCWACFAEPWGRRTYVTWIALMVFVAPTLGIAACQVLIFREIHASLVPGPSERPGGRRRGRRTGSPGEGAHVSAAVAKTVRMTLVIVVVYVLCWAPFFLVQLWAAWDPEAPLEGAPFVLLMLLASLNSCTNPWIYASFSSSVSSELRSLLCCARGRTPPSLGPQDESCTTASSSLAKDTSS
In short: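 CHO K1 cells stably expressing the human V2 receptor and a CRE-driven firefly luciferase were plated the day before in DMEM/F12 with 2% FCS. Test compounds were added together with [Arg8]-vasopressin at its EC50 and incubated 3 h at 37 °C. Luciferase luminescence was read after Triton lysis and luciferin addition, giving IC50 values.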

SMILES	IC50 (human V1a receptor) [nM]	ratio IC50 hV2/hV1a (human V1a receptor)	IC50 (human V2 receptor) [nM]
C[C@@H](OC(N)=O)c1nc(Cn2nc(-c3ccc(Cl)cc3)n(C[C@H](O)C(F)(F)F)c2=O)nn1-c1cccc(Cl)c1 [Example 36, (1R)-1-[1-(3-Chlorophenyl)-3-({3-(4-chlorophenyl)-5-oxo-4-[(2S)-3,3,3-trifluoro-2-hydroxypropyl]-4,5-dihydro-1H-1,2,4-triazol-1-yl}methyl)-1H-1,2,4-triazol-5-yl]ethyl Carbamate]	28.6	0.1	1.81
COCCNC(=O)OCc1nc(Cn2nc(-c3ccc(Cl)cc3)n(C[C@H](O)C(F)(F)F)c2=O)nn1-c1cccc(F)c1 [Example 44, [3-({3-(4-Chlorophenyl)-5-oxo-4-[(2S)-3,3,3-trifluoro-2-hydroxypropyl]-4,5-dihydro-1H-1,2,4-triazol-1-yl}methyl)-1-(3-fluorophenyl)-1H-1,2,4-triazol-5-yl]methyl (2-methoxyethyl)carbamate]	27.6	0.3	7.98
O=C(NCC(F)(F)F)OCc1nc(Cn2nc(-c3ccc(Cl)cc3)n(C[C@H](O)C(F)(F)F)c2=O)nn1-c1cccc(F)c1 [Example 45, [3-({3-(4-Chlorophenyl)-5-oxo-4-[(2S)-3,3,3-trifluoro-2-hydroxypropyl]-4,5-dihydro-1H-1,2,4-triazol-1-yl}methyl)-1-(3-fluorophenyl)-1H-1,2,4-triazol-5-yl]methyl (2,2,2-trifluoroethyl)-carbamate]	11.2	0.5	5.13

Now those with a lower IC50 (human V1a receptor), led by results:

IC50 (human V1a receptor) [nM]	ratio IC50 hV2/hV1a (human V1a receptor)	IC50 (human V2 receptor) [nM]	SMILES
0.77	8.6	6.62	Cc1ccccc1-n1nc(Cn2nc(-c3ccc(Cl)cc3)n(C[C@H](O)C(F)(F)F)c2=O)nc1COC(N)=O [Example 37, [3-({3-(4-Chlorophenyl)-5-oxo-4-[(2S)-3,3,3-trifluoro-2-hydroxypropyl]-4,5-dihydro-1H-1,2,4-triazol-1-yl}methyl)-1-(2-methylphenyl)-1H-1,2,4-triazol-5-yl]methyl Carbamate]
0.65	5.5	3.56	Cc1ccccc1-n1nc(Cn2nc(-c3ccc(Cl)cc3)n(C[C@H](OC(N)=O)C(F)(F)F)c2=O)nc1COC(N)=O [Example 38, (2S)-3-[1-({5-[(Carbamoyloxy)methyl]-1-(2-methylphenyl)-1H-1,2,4-triazol-3-yl}methyl)-3-(4-chlorophenyl)-5-oxo-1,5-dihydro-4H-1,2,4-triazol-4-yl]-1,1,1-trifluoropropan-2-yl Carbamate]
5.59	1.1	5.93	CCNC(=O)OCc1nc(Cn2nc(-c3ccc(Cl)cc3)n(C[C@H](O)C(F)(F)F)c2=O)nn1-c1cccc(F)c1 [Example 43, [3-({3-(4-Chlorophenyl)-5-oxo-4-[(2S)-3,3,3-trifluoro-2-hydroxypropyl]-4,5-dihydro-1H-1,2,4-triazol-1-yl}methyl)-1-(3-fluorophenyl)-1H-1,2,4-triazol-5-yl]methyl Ethylcarbamate]
6.47	1.5	9.36	CNC(=O)OCc1nc(Cn2nc(-c3ccc(Cl)cc3)n(C[C@H](O)C(F)(F)F)c2=O)nn1-c1cccc(F)c1 [Example 46, [3-({3-(4-Chlorophenyl)-5-oxo-4-[(2S)-3,3,3-trifluoro-2-hydroxypropyl]-4,5-dihydro-1H-1,2,4-triazol-1-yl}methyl)-1-(3-fluorophenyl)-1H-1,2,4-triazol-5-yl]methyl Methylcarbamate]
0.43	16.6	7.16	CCNC(=O)OCc1nc(Cn2nc(-c3ccc(Cl)cc3)n(C[C@H](O)C(F)(F)F)c2=O)nn1-c1ccccc1Cl [Example 47, [1-(2-Chlorophenyl)-3-({3-(4-chlorophenyl)-5-oxo-4-[(2S)-3,3,3-trifluoro-2-hydroxypropyl]-4,5-dihydro-1H-1,2,4-triazol-1-yl}methyl)-1H-1,2,4-triazol-5-yl]methyl Ethylcarbamate]
